In article PMC10094921, “A Lipidated Single-B-Chain Derivative of Relaxin Exhibits Improved In Vitro Serum Stability without Altering Activity” (International Journal of Molecular Sciences, 2023):
No end group written: not given here.

Columns and labels:
[1] = system: BJ3 human dermal myofibroblasts; assay: Myofibroblast differentiation in vitro (α-SMA expression, Western blot); type: cell-based
Procedure: 3.8. Determination of the Effects of Lipidated (L)-B7-33 on Myofibroblast Differentiation In Vitro
To determine if the lipidation of B7-33 prolonged its ability to suppress myofibroblast differentiation in vitro, the effects of the native B7-33 peptide vs. lipidated (L)-B7-33 were compared in BJ3 cells, a human dermal fibroblast cell line. BJ3 fibroblasts were used between passages 15–18 and cultured as described before. […] BJ3 cells were plated in 12-well plates at a density of 1–1.25 × 10^5 cells per well and were then either left untreated or stimulated with transforming growth factor (TGF)-β1 (T; 2 ng/mL) alone (to promote myofibroblast differentiation) or with T + B7-33 (100 ng/mL) or T + L-B7-33 (100 ng/mL) for a 14-day period, in media that was left unchanged over this time period. The cells from duplicate wells per treatment group were isolated from plates at 3-, 5-, 7-, 10- and 14-days post-T ± peptide treatment and extracted for protein using the RIPA lysis buffer (ThermoFisher Scientific; Scoresby, Victoria, Australia). These experiments were performed six independent times.
Half the cell protein (in 10 μL of RIPA buffer) from each sample (that was fully reconstituted in 20 μL of RIPA buffer) was loaded and electrophoresed in separate mini-protean 4–15% precast gels, and analyzed by Western blotting using a primary monoclonal antibody to α-SMA (42 kDa; M0851; […]; Agilent Technologies, Santa Clara, CA, USA). The equivalent loading of protein between samples was confirmed using a rabbit monoclonal glyceraldehyde 3-phosphate dehydrogenase (GAPDH) housekeeping antibody (37 kDa; 2118; 1:1000 dilution; Cell Signaling Technology; Danvers, MA, USA). Each membrane was then subjected to appropriate anti-mouse (7076) or anti-rabbit (7074) horseradish peroxidase-conjugated secondary antibodies (both at a 1:2000 dilution; Cell Signaling Technologies), before proteins were detected using the Clarity Western ECL substrate detection kit and quantified by densitometry with a ChemiDoc MP Imaging System and Image Lab v.6.0 software (both from Bio-Rad Laboratories, Hercules, CA, USA).The density of α-SMA from each sample was corrected for GAPDH protein levels and then expressed relative to the ratio that was measured from the unstimulated control group, which was expressed as 1 in each case. Representative blots of α-SMA and GAPDH were also chosen for presentation in each case.

[2] = In vitro serum stability assay; type: in vitro ADME, human; conditions: 37 °C
Procedure: 3.7. In Vitro Serum Stability Assay
A total of 400 µL of human serum was taken, and 200 µg peptide dissolved in 100 µL of water was added to human serum at 37 °C. A total of 80 µL of samples was removed at various time points (0 min, 30 min, 60 min, 120 min, 240 min, and 480 min), and 160 µL of acetonitrile was added to precipitate plasma proteins. The solution was then centrifuged at 12,000 rpm for 15 min at 4 °C. A total of 200 µL of supernatant was taken out and mixed with 240 µL of milli-Q water, and each sample was analyzed by RP-HPLC (2 × 80 μL injection), by measuring the area under the peak at the appropriate retention time compared to the peak area of the peptide at time zero minute (100%). Data analysis (n = 3, duplicate) was performed using Prism Version 8.0.2, a non-linear-fit one-phase decay model.

[3] = system: heart fibrosis, lung fibrosis; conditions: rat vs. mouse; cited from earlier work
Text: (§1) The human gene-2 relaxin peptide (H2 relaxin) was discovered as a hormone of reproduction. The actions of H2 relaxin during pregnancy are pleiotropic, including strong antifibrotic, angiogenic, vasodilatory, antiapoptotic, and anti-inflammatory effects. These effects are mediated through the activation of the G protein-coupled receptor, Relaxin Family Peptide Receptor 1 (RXFP1), the native receptor for H2 relaxin [5]. However, H2 relaxin also has a high affinity for, and potency on, the related Relaxin Family Peptide Receptor 2 (RXFP2, a cognate receptor for INSL3 [6]) ...

[4] = system: pERK pathway; conditions: in fibroblasts; cited from earlier work
Text: as §1

[5] = system: cyclic adenosine monophosphate (cAMP); conditions: in fibroblasts; cited from earlier work
Text: as §1

[6] = biological target: T1, 7BP protein (RXFP1 extracellular domain attached with a single TM domain) (Homo sapiens, UniProt Q9HBX9); assay: Eu-H2 relaxin competition binding in HEK-7BP cells, BSA free; conditions: HEK-293T cells stably expressing 7BP, BSA excluded from buffer, mean ± SEM, n in brackets, one-site fit, read-out: HEK-7BP Binding B.S.A. Free Eu-H2 pKi (n) (converted)
T1 construct: RXFP1 extracellular domain attached with a single TM domain instead of the native 7 TM domain; single transmembrane domain replacing the native 7 TM domain (heterologous); expressed in transfected cells; host or cells: HEK-293T cells stably expressing 7BP (HEK-7BP)
T1 sequence (Q9HBX9 1-409 limits assumed): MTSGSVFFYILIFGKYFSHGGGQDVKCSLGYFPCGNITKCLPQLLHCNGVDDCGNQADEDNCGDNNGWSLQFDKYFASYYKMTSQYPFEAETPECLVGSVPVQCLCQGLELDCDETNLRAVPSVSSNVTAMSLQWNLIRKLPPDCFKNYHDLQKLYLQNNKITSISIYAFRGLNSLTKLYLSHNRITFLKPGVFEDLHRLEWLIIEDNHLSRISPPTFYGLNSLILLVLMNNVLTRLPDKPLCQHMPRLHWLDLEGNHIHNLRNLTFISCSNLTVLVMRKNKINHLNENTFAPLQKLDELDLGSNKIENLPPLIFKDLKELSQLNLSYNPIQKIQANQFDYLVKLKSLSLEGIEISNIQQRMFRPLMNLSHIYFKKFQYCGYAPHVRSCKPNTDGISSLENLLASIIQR
Procedure: 3.6. HEK-7BP Binding Assays
HEK-293T cells stably expressing the 7BP protein (HEK-7BP; RXFP1 extracellular domain attached with a single TM domain instead of the native 7 TM domain [30]) were plated in 96-well plates. The medium was aspirated off, and the cells were washed with phosphate-buffered saline (PBS) before competition binding assays were performed with Eu-H2 Relaxin (RXFP1 ligand), as previously described, with the only difference being that BSA was excluded from the binding assay buffer. Competition binding curves for each peptide were performed in triplicate, and each experiment was performed independently at least three times. Fluorescent measurements were carried out on a BMG POLARstar plate reader (BMG Labtech, Melbourne, Australia). Pooled data are presented as mean ± SE of specific binding and are fitted using a one-site binding curve in GraphPad Prism version 8 (GraphPad Inc., San Diego, CA, USA). Statistical analyses were conducted using a one-way analysis of variance with uncorrected Fisher’s least significant difference (LSD) post-hoc analysis in GraphPad Prism version 8.

[7] = human serum 400 µL + 200 µg peptide in 100 µL water, samples 0-480 min, acetonitrile precipitation, RP-HPLC peak area vs time zero, one-phase decay fit, n = 3, duplicate

Molecule | α-SMA expression levels versus T-alone-stimulated cells, in words ([1]; peptide 100 ng/mL + T 2 ng/mL, after 5–14 days of culture) | suppression of TGF-α-induced increase in α-SMA expression ([1]; peptide 100 ng/mL co-administered with T (2 ng/mL), after 72 h of culture, 0.5% FCS, n = 6 in duplicate) | half-life at 400 µg/mL [2, 7] [min] | in vitro half-life in serum [2, 7] [min] | in vitro serum stability, in words ([2]; human serum, RP-HPLC, n = 3 independent experiments) | effect on fibrosis in animal models [3] | pERK pathway activation potency [4] | cAMP activation [5] | Ki [6] [µM]
VIKLSGRELVRAQIAISGMSTWSKRSL-NH2 [Analogue B7-33] | fully returned to those measured for T-alone-stimulated cells | almost fully suppressed | ~6 | 6 | degrades within minutes | reversed or resolved fibrosis | potency similar to H2 relaxin | barely activate | 
CCCCCCCCCCCCCCCC(=O)NCCCC[C@H](NC(=O)[C@H](CCC(=O)O)NC(=O)[C@H](Cc1ccc(O)cc1)NC(=O)[C@@H](N)CCC(=O)O)C(=O)N[C@@H](CCC(=O)O)C(=O)N[C@@H](Cc1ccc(O)cc1)C(=O)N[C@@H](CCC(=O)O)C(=O)NCCOCCOCCOCCOCCOCCOCCC(=O)N[C@H](C(=O)N[C@H](C(=O)N[C@@H](CCCCN)C(=O)N[C@@H](CC(C)C)C(=O)N[C@@H](CO)C(=O)NCC(=O)N[C@@H](CCCNC(=N)N)C(=O)N[C@@H](CCC(=O)O)C(=O)N[C@@H](CC(C)C)C(=O)N[C@H](C(=O)N[C@@H](CCCNC(=N)N)C(=O)N[C@@H](C)C(=O)N[C@@H](CCC(N)=O)C(=O)N[C@H](C(=O)N[C@@H](C)C(=O)N[C@H](C(=O)N[C@@H](CO)C(=O)NCC(=O)N[C@@H](CCSC)C(=O)N[C@@H](CO)C(=O)N[C@H](C(=O)N[C@@H](Cc1c[nH]c2ccccc12)C(=O)N[C@@H](CO)C(=O)N[C@@H](CCCCN)C(=O)N[C@@H](CCCNC(=N)N)C(=O)N[C@@H](CO)C(=O)N[C@@H](CC(C)C)C(N)=O)[C@@H](C)O)[C@@H](C)CC)[C@@H](C)CC)C(C)C)[C@@H](C)CC)C(C)C [Tag-PEG6-B7-33] |  |  |  |  |  |  |  |  | > 10
